Biological target: T1, CNGA3 RR-QQ (R643Q, R646Q) channels (Homo sapiens, UniProt Q16281, R643Q/R646Q)
T1 sequence (Q16281 1-694 R643Q/R646Q): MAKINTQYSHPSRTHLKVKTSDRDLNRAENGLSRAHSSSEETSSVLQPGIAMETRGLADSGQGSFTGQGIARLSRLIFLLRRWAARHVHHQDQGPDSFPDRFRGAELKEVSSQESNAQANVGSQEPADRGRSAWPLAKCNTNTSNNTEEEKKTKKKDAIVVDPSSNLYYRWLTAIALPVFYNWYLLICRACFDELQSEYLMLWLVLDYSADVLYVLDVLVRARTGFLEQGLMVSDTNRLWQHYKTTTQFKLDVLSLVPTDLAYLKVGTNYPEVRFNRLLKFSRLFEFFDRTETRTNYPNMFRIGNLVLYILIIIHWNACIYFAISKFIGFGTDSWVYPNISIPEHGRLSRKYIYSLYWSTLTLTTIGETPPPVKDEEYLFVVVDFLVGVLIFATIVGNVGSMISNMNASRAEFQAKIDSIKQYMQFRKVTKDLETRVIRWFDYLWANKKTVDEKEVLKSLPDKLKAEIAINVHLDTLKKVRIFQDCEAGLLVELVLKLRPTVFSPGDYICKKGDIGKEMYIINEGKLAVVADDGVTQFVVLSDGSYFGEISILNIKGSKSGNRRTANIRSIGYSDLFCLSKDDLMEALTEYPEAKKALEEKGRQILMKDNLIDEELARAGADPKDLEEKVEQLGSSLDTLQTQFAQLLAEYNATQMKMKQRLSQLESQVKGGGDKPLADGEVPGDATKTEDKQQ
Test: Inside-out patch clamp, CNGA3 RR-QQ
Format: biochemical

In the case of `Nc1nc2c(ncn2[C@@H]2O[C@@H]3COP(=O)(O)O[C@H]3[C@H]2O)c(=O)[nH]1` [cGMP, cyclic guanosine monophosphate], the Hill coefficient (cGMP activation) is reported as 2.00 ± 0.00 (3), the EC50 (read-out: K1/2 cGMP, +80 mV, no PIPn) is reported as 7.45 ± 0.63 µM and the “Po max cGMP” value (saturating cGMP) is reported as 0.94 ± 0.01 (3).
